Experimental data from ChEMBL document CHEMBL3108718, “Replacement of the Disulfide Bridge in a KLK3-Stimulating Peptide Using Orthogonally Protected Building Blocks” (ACS Med Chem Lett, 2014).
Bridge positions count the residues as written; N and C are the ends. Square brackets hold non-standard residues; d marks the D form. Peptide text beside a SMILES is read from it. Asu = N[C@@H](CCCCCC(=O)O)C(=O)O; AllylGly = C=CC[C@H](N)C(=O)O; GABA = NCCCC(=O)O

Columns and labels:
[1] = target: T1, Prostate-specific antigen (Homo sapiens) (UniProt P07288); assay: Stimulation of KLK3 (unknown origin) using S-2586 as substrate at 14 uM after 30 mins by spectrophotometric assay relative to control
T1 sequence (whole entry): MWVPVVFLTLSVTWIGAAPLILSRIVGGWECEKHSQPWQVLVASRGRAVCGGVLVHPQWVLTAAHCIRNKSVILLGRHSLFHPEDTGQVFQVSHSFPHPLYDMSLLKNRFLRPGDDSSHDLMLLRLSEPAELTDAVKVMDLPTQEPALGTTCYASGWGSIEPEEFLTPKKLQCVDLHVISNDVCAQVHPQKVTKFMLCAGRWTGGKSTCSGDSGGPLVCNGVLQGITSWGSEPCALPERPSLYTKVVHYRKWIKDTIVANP

[2] = target: T1, Prostate-specific antigen (Homo sapiens); assay: Stimulation of KLK3 (unknown origin) relative to control

| Activity [1] [%] | Activity [2] [%] | SMILES |
| --- | --- | --- |
| 160 | – | CC(C)C[C@@H]1NC(=O)[C@H](Cc2ccc(O)cc2)NC(=O)[C@H](CC(=O)O)NC(=O)[C@H](Cc2ccc(O)cc2)NC(=O)[C@H](CC(N)=O)NC(=O)[C@H](Cc2cnc[nH]2)NC(=O)[C@H](C)NC(=O)[C@H](Cc2ccccc2)NC(=O)[C@H](C(C)C)NC(=O)CC/C=C/C[C@@H](C(=O)O)NC(=O)[C@H](C(C)C)NC1=O |
| 250 | – | CC(C)C[C@@H]1NC(=O)[C@H](Cc2ccc(O)cc2)NC(=O)[C@H](CC(=O)O)NC(=O)[C@H](Cc2ccc(O)cc2)NC(=O)[C@H](CC(N)=O)NC(=O)[C@H](Cc2cnc[nH]2)NC(=O)[C@H](C)NC(=O)[C@H](Cc2ccccc2)NC(=O)[C@H](C(C)C)NC(=O)[C@@H](N)CCCC[C@@H](C(=O)O)NC(=O)[C@H](C(C)C)NC1=O |
| 360 | – | CC(C)C[C@@H]1NC(=O)[C@H](Cc2ccc(O)cc2)NC(=O)[C@H](CC(=O)O)NC(=O)[C@H](Cc2ccc(O)cc2)NC(=O)[C@H](CC(N)=O)NC(=O)[C@H](Cc2cnc[nH]2)NC(=O)[C@H](C)NC(=O)[C@H](Cc2ccccc2)NC(=O)[C@H](C(C)C)NC(=O)[C@@H](N)CSSC[C@@H](C(N)=O)NC(=O)[C@H](C(C)C)NC1=O (H-CVFAHNYDYLVC-NH2; disulfide 1-12) |
| 160 | – | CC(C)C[C@@H]1NC(=O)[C@H](Cc2ccc(O)cc2)NC(=O)[C@H](CC(=O)O)NC(=O)[C@H](Cc2ccc(O)cc2)NC(=O)[C@H](CC(N)=O)NC(=O)[C@H](Cc2cnc[nH]2)NC(=O)[C@H](C)NC(=O)[C@H](Cc2ccccc2)NC(=O)[C@H](C(C)C)NC(=O)[C@@H](N)C/C=C/C[C@@H](C(=O)O)NC(=O)[C@H](C(C)C)NC1=O (H-[AllylGly]VFAHNYDYLV[AllylGly]-OH; staple (E) 1-12) |
| 170 | – | CC(C)C[C@@H]1NC(=O)[C@H](Cc2ccc(O)cc2)NC(=O)[C@H](CC(=O)O)NC(=O)[C@H](Cc2ccc(O)cc2)NC(=O)[C@H](CC(N)=O)NC(=O)[C@H](Cc2cnc[nH]2)NC(=O)[C@H](C)NC(=O)[C@H](Cc2ccccc2)NC(=O)[C@H](C(C)C)NC(=O)CCCCC[C@@H](C(=O)O)NC(=O)[C@H](C(C)C)NC1=O (VFAHNYDYLV[Asu]-OH; lactam N-11) |
| – | 250 | CC(C)C[C@@H]1NC(=O)[C@H](Cc2ccc(O)cc2)NC(=O)[C@H](CC(=O)O)NC(=O)[C@H](Cc2ccc(O)cc2)NC(=O)[C@H](CC(N)=O)NC(=O)[C@H](Cc2cnc[nH]2)NC(=O)[C@H](C)NC(=O)[C@H](Cc2ccccc2)NC(=O)[C@H](C(C)C)NC(=O)CCCNC(=O)[C@H](CC(=O)O)NC(=O)[C@H](C(C)C)NC1=O (cyclo(AHNYDYLVD[GABA]VF)) |
